From PubChem BioAssay (NCI) come the findings set out here.

Among the test systems are NCI-H460 lung; UACC-257 melanoma; HCT-116 colon; CAKI-1 renal; NCI-H23 lung; SK-MEL-5 melanoma; MCF7 breast; MOLT-4 leukemia; SK-OV-3 ovarian; U251 CNS.
Holding throughout (experiment): NCI-60 cell line screen, 48 h

Molecules are shown by their SMILES. Several values for one entry are separate records, joined by “and”; a condition that tells them apart may be missing. Equal entries are not always repeated.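 Results reflect a 48-hour exposure of cells in 96-well plates to compound at five concentrations. The concentration for 50% growth inhibition is given as GI50. TGI marks complete inhibition of growth.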

With `CCOC(=O)c1cc2ncccc2c2ccccc12`, the TGI in the assay on NCI-H460 lung, in the assay on UACC-257 melanoma, in the assay with HCT-116 colon, in the assay with CAKI-1 renal, with NCI-H23 lung and with SK-MEL-5 melanoma was more than 100 µM in each case. Also, the TGI in the assay with MCF7 breast, in the assay on MOLT-4 leukemia, with SK-OV-3 ovarian and in the assay on U251 CNS was more than 100 µM each time.

In the case of `CCCC(=O)NNc1[nH]c(-c2ccc(OC)cc2)cc1C(=O)OCC`, the GI50 was 46.6 µM with NCI-H460 lung; 1.6 µM with UACC-257 melanoma; 37.2 µM in the assay on HCT-116 colon; 12.5 µM in the assay with CAKI-1 renal; 14.9 µM in the assay with NCI-H23 lung; 18.5 µM in the assay with SK-MEL-5 melanoma. Also, the GI50 in the assay on MCF7 breast is 17.7 µM; in the assay with MOLT-4 leukemia it was 6.52 µM; in the assay with SK-OV-3 ovarian, more than 100 µM; in the assay on U251 CNS it was 29.5 µM. In addition, the TGI in the assay on NCI-H460 lung is more than 100 µM; with UACC-257 melanoma, 14.8 µM; with HCT-116 colon, more than 100 µM; with CAKI-1 renal, 25.7 µM; in the assay on NCI-H23 lung, 38 µM; in the assay on SK-MEL-5 melanoma it was 33.2 µM. Besides, the TGI in the assay on MCF7 breast is 35.3 µM; in the assay with MOLT-4 leukemia, more than 100 µM; in the assay with SK-OV-3 ovarian, more than 100 µM; with U251 CNS, more than 100 µM.

Take `O=C(O)CCC1CCC(c2cc(F)ccc2F)(S(=O)(=O)c2ccc(Cl)cc2)CC1` (stereo not drawn): the GI50 was 42.5 µM and > 100 µM in the assay on NCI-H460 lung; 44 µM and > 100 µM in the assay with UACC-257 melanoma; 23.5 µM and > 100 µM in the assay with HCT-116 colon; 23.4 µM and > 100 µM in the assay with NCI-H23 lung; 27.6 µM and > 100 µM in the assay with SK-MEL-5 melanoma; 29.2 µM and > 81.4 µM in the assay on MCF7 breast. The GI50 with MOLT-4 leukemia is 41.2 µM and > 59.7 µM; with SK-OV-3 ovarian it was 32.1 µM and > 100 µM; in the assay with U251 CNS, 32.7 µM and > 100 µM. For the same compound, the TGI is more than 100 µM in the assay on NCI-H460 lung; more than 100 µM in the assay on UACC-257 melanoma; more than 100 µM with HCT-116 colon; 45.1 µM and > 100 µM in the assay on CAKI-1 renal; more than 100 µM in the assay with NCI-H23 lung; more than 100 µM in the assay on SK-MEL-5 melanoma. Also, the TGI with MCF7 breast, in the assay on MOLT-4 leukemia, in the assay on SK-OV-3 ovarian and in the assay on U251 CNS was more than 100 µM throughout.

On to `Cn1cc(C2=C(c3c4n(c5ccccc35)CCC(CN)CC4)C(=O)NC2=O)c2ccccc21` (stereo not drawn), for which the GI50 was 4.21 µM in the assay with NCI-H460 lung; 3.89 µM in the assay on UACC-257 melanoma; 3.51 µM in the assay on HCT-116 colon; 4.75 µM in the assay on CAKI-1 renal; 5.05 µM in the assay on NCI-H23 lung; 3.99 µM in the assay on SK-MEL-5 melanoma. For the same compound, the GI50 was 3.48 µM in the assay on MCF7 breast, 5.27 µM in the assay on MOLT-4 leukemia, 4.99 µM in the assay on SK-OV-3 ovarian and 3.74 µM in the assay on U251 CNS. The TGI was 8.19 µM in the assay with NCI-H460 lung; 7.57 µM with UACC-257 melanoma; 7.26 µM in the assay with HCT-116 colon; 10.7 µM in the assay on CAKI-1 renal; 10.9 µM in the assay with NCI-H23 lung; 7.59 µM with SK-MEL-5 melanoma. Besides, the TGI in the assay on MCF7 breast was found to be 7.41 µM; in the assay on MOLT-4 leukemia, 13.3 µM; in the assay with SK-OV-3 ovarian, 11.6 µM; in the assay on U251 CNS, 7.21 µM.

Consider `O=C(Nc1ccc(Br)c(Cl)c1)c1cc(F)ccc1O`, for which the GI50 with NCI-H460 lung is 0.675 µM; in the assay on UACC-257 melanoma, 0.526 µM; in the assay with HCT-116 colon, 0.423 µM; with CAKI-1 renal it was 0.826 µM; with NCI-H23 lung, 0.36 µM; in the assay on SK-MEL-5 melanoma, 0.358 µM. The GI50 in the assay on MCF7 breast was 0.883 µM; with MOLT-4 leukemia, 0.943 µM; with SK-OV-3 ovarian it was 0.633 µM; with U251 CNS, 0.768 µM. In addition, the TGI in the assay on NCI-H460 lung is more than 14.8 µM; with UACC-257 melanoma, 2.79 µM; in the assay on HCT-116 colon, 2.08 µM; in the assay with CAKI-1 renal, 3.46 µM; in the assay with NCI-H23 lung, 3.17 µM; in the assay with SK-MEL-5 melanoma, 1.05 µM. Moreover, the TGI with MCF7 breast is more than 50 µM; with MOLT-4 leukemia it was 2.81 µM; with SK-OV-3 ovarian it was 3.79 µM; in the assay with U251 CNS, more than 50 µM.

Turning to `COC(=O)C#Cc1ccc([N+](=O)[O-])cc1`, the TGI was determined as 38.7 µM in the assay on NCI-H460 lung; 7.12 µM with UACC-257 melanoma; 3.46 µM with HCT-116 colon; 2.74 µM in the assay on CAKI-1 renal; 3.68 µM with NCI-H23 lung; 6.18 µM with SK-MEL-5 melanoma. The TGI was 9.04 µM with MCF7 breast, 2.88 µM with MOLT-4 leukemia, 19 µM in the assay with SK-OV-3 ovarian and 3.86 µM in the assay with U251 CNS.

Regarding `CN(C)CC1CCn2c(c(C3=C(c4cn(C)c5ccccc45)C(=O)NC3=O)c3ccccc32)C1` (stereo not drawn), the GI50 is 4.57 µM with NCI-H460 lung; 3.93 µM with UACC-257 melanoma; 3.24 µM in the assay on HCT-116 colon; 3.44 µM in the assay with CAKI-1 renal; 4.71 µM in the assay with NCI-H23 lung; 3.9 µM in the assay with SK-MEL-5 melanoma. Besides, the GI50 is 4.31 µM with MCF7 breast, 4.74 µM in the assay with MOLT-4 leukemia, 4.62 µM with SK-OV-3 ovarian and 3.95 µM in the assay on U251 CNS. The TGI in the assay on NCI-H460 lung was 8.68 µM; in the assay with UACC-257 melanoma, 7.52 µM; in the assay on HCT-116 colon, 6.75 µM; in the assay on CAKI-1 renal it was 7.66 µM; in the assay with NCI-H23 lung it was 11.3 µM; in the assay on SK-MEL-5 melanoma, 7.49 µM. Moreover, the TGI in the assay with MCF7 breast is 8.03 µM; with MOLT-4 leukemia it was 13.9 µM; with SK-OV-3 ovarian, 10.5 µM; in the assay on U251 CNS, 7.64 µM.

Regarding `COc1cccc2c1c1nc3cc(C)c(C)cc3nc1n2CCN(C)C`, the GI50 in the assay with NCI-H460 lung is 1.09 µM; in the assay with UACC-257 melanoma, 1.9 µM; with HCT-116 colon, 0.426 µM; in the assay with CAKI-1 renal, 0.946 µM; with NCI-H23 lung, 1.66 µM; in the assay with SK-MEL-5 melanoma it was 1.64 µM. The GI50 in the assay on MCF7 breast was 2.13 µM; in the assay with MOLT-4 leukemia it was 0.498 µM; in the assay with SK-OV-3 ovarian, 2.02 µM; in the assay on U251 CNS it was 2.21 µM. For the same compound, the TGI in the assay on NCI-H460 lung amounted to 10.9 µM; with UACC-257 melanoma, 4.74 µM; in the assay on HCT-116 colon it was 10.3 µM; with CAKI-1 renal it was 6.34 µM; in the assay on NCI-H23 lung, 5.57 µM; in the assay on SK-MEL-5 melanoma, 3.01 µM. Also, the TGI in the assay on MCF7 breast amounted to 10.9 µM; with SK-OV-3 ovarian it was 12.2 µM; in the assay with U251 CNS, 11.7 µM.
